Data as given in patent EP3381906A1, “COMPOUNDS FOR USE AS HEPARANASE INHIBITORS” (Leadiant Biosciences SA, priority 2017, dated 2018).

Target: T1, heparanase (Homo sapiens, UniProt Q9Y251)
T1 construct: 100 µM fondaparinux, 2.5 nM heparanase and serial dilutions of test compounds
T1 sequence (Q9Y251 158-543 limits assumed): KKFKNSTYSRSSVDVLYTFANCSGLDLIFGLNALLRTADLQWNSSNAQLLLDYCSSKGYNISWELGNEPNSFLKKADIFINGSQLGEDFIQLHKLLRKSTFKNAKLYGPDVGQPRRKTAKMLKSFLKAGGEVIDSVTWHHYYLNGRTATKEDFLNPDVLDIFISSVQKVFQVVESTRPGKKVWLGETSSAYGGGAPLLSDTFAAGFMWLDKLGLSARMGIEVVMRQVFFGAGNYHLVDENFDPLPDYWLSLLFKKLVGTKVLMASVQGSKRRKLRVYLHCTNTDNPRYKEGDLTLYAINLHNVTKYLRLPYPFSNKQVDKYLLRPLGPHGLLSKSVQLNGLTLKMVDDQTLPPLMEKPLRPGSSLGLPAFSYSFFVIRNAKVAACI
T1 sequence (Q9Y251 36-109 limits assumed): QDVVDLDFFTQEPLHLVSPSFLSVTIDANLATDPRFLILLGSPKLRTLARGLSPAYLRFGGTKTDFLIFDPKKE
Assay: AGA*IA assay: heparanase-catalyzed fondaparinux cleavage, colorimetric (WST-1)
Assay type: biochemical
Settings: not given
Method: All compounds were tested in a simple, accurate and robust microplate assay based on the cleavage of the synthetic heparin fragment, the pentasaccharide Fondaparinux (AGA*IA). This assay was originally developed by Hammond and coworkers [Hammond E, Li CP, Ferro V. Development of a colorimetric assay for heparanase activity suitable for kinetic analysis and inhibitor screening. […] Fondaparinux is cleaved by heparanase to generate a reducing disaccharide, which can be quantitatively measured via a colorimetric or a fluorescence assay, the last by the fluorescent sensor polymer-H [Schiemann S, Lühn S, Alban S. Development of both colorimetric and fluorescence heparinase activity assays using fondaparinux as substrate.
The assay measures the appearance of the disaccharide product of heparanase-catalyzed fondaparinux cleavage colorimetrically using the tetrazolium salt WST-1. Assay was essentially performed as described with minor modifications. Briefly, NUNC ELISA 96-well plates were pre-treated with a solution of 4% BSA (bovin serum albumin) in phosphate-buffered saline containing 0.05% Tween 20 (PBST), for 2 h at 37°C, then washed three times with PBST, dried by tapping on paper towel and stored at -20°C. Before use, once again, the plates were washed with PBST.
Then, the absorbance at 560 nm was measured through a microplate reader (Victor 3, Perkin Elmer).
Finally, the measurements were corrected by subtracting both the reagent background and the inner absorbance value of test compound.

Structure (SMILES) | IC50
O=C(Nc1ccc(O)cc1C(=O)O)c1ccc(S(=O)(=O)c2ccc(C(=O)Nc3ccc(O)cc3C(=O)O)cc2)cc1 [SST0817] | 500 to 990 nM
O=C(Nc1ccc(-c2nc3ccccc3o2)cc1)c1ccc(Oc2ccc(C(=O)Nc3ccc(-c4nc5ccccc5o4)cc3)cc2)cc1 [SST0805] | 1000 to 10000 nM

Same assay, conditions: 2.5 nM heparanase, 100 µM fondaparinux, pH 5.0, 3 h at 37°C; class symbols; read-out: AGAIA assay (IC50)

IC50 | Structure (SMILES)
1000 to 10000 nM | CC(C)(c1ccc(Oc2ccc3c(c2)C(=O)N(c2ccc(C(=O)O)cc2)C3=O)cc1)c1ccc(Oc2ccc3c(c2)C(=O)N(c2ccc(C(=O)O)cc2)C3=O)cc1 [SST0852, 4-[5-[4-[2-[4-[2-(4-carboxyphenyl)-1,3-dioxoisoindol-5-yl]oxyphenyl]propan-2-yl]phenoxy]-1,3-dioxoisoindol-2-yl]benzoic acid]
1000 to 10000 nM | O=C(Nc1cccc(-c2nc3ccccc3s2)c1)c1ccc(Oc2ccc(C(=O)Nc3cccc(-c4nc5ccccc5s4)c3)cc2)cc1 [SST0802, N-[3-(1,3-benzothiazol-2-yl)phenyl]-4-[4-[[3-(1,3-benzothiazol-2-yl)phenyl]carbamoyl]phenoxy]benzamide]
1000 to 10000 nM | O=C(O)c1cc(NC(=O)c2ccc(Oc3ccc(C(=O)Nc4cc(C(=O)O)cc(C(=O)O)c4)cc3)cc2)cc(C(=O)O)c1 [SST0808, 5-[[4-[4-[(3,5-dicarboxyphenyl)carbamoyl]phenoxy]benzoyl]amino]benzene-1,3-dicarboxylic acid]
1000 to 10000 nM | O=C(Nc1cccc(C(=O)c2ccccc2)c1)c1ccc(Oc2ccc(C(=O)Nc3cccc(C(=O)c4ccccc4)c3)cc2)cc1 [SST0801]
1000 to 10000 nM | O=C(Nc1nc(-c2ccc3ccccc3c2)cs1)c1ccc(Oc2ccc(C(=O)Nc3nc(-c4ccc5ccccc5c4)cs3)cc2)cc1 [SST0803]
1000 to 10000 nM | O=C(O)c1ccccc1N1C(=O)c2ccc(Oc3ccc(Oc4ccc5c(c4)C(=O)N(c4ccccc4C(=O)O)C5=O)cc3)cc2C1=O [SST0855, Benzoic acid, 2,2'-[1,4-phenylenebis[oxy(1,3-dihydro-1,3-dioxo-2H-isoindole-5,2-diyl)]]bis-]
1000 to 10000 nM | O=C(Nc1cccc(Oc2ccc(S(=O)(=O)c3ccc(Oc4cccc(NC(=O)c5ccc(F)cc5)c4)cc3)cc2)c1)c1ccc(F)cc1 [SST0812]
1000 to 10000 nM | O=C(Nc1ccc(Br)cc1C(=O)O)c1ccc(Oc2ccc(C(=O)Nc3ccc(Br)cc3C(=O)O)cc2)cc1 [SST0604, 5-bromo-2-[[4-[4-[(4-bromo-2-carboxyphenyl)carbamoyl]phenoxy]benzoyl]amino]benzoic acid]
1000 to 10000 nM | Nc1ccc2cc(S(=O)(=O)O)cc(O)c2c1N=Nc1ccc(NC(=O)Nc2ccc(N=Nc3c(N)ccc4cc(S(=O)(=O)O)cc(O)c34)c(S(=O)(=O)O)c2)cc1S(=O)(=O)O [SST0753]
1000 to 10000 nM | O=C(Nc1ccc(O)cc1C(=O)O)c1ccc(Oc2ccc(C(=O)Nc3ccc(O)cc3C(=O)O)cc2)cc1 [SST0810]
1000 to 10000 nM | O=C(Nc1ccc(NC(=O)c2ccc(N=Nc3ccc(O)cc3O)cc2)c(S(=O)(=O)O)c1)Nc1ccc(NC(=O)c2ccc(N=Nc3ccc(O)cc3O)cc2)c(S(=O)(=O)O)c1 [SST0610]
1000 to 10000 nM | O=C(O)c1ccc(NC(=O)c2ccc(Oc3ccc(C(=O)Nc4ccc(C(=O)O)cc4)cc3)cc2)cc1 [SST0809, 4,4'-[oxybis(benzene-4,1-diylcarbonylimino)]dibenzoic acid]
1000 to 10000 nM | O=C(O)c1ccc2c(c1)C(=O)N(c1cccc(Oc3cccc(Oc4cccc(N5C(=O)c6ccc(C(=O)O)cc6C5=O)c4)c3)c1)C2=O [SST0857]
1000 to 10000 nM | O=C(O)c1ccc2c(c1)C(=O)N(c1ccc(Oc3ccc(Oc4ccc(N5C(=O)c6ccc(C(=O)O)cc6C5=O)cc4)cc3)cc1)C2=O [SST0813]
1000 to 10000 nM | O=C(Nc1ccc(Oc2ccc(NC(=O)c3ccc4c(c3)C(=O)N(c3nccs3)C4=O)cc2)cc1)c1ccc2c(c1)C(=O)N(c1nccs1)C2=O [SST0816]
1000 to 10000 nM | O=C(Nc1csc(-c2ccc(Oc3ccc(-c4nc(NC(=O)c5ccc(C(=O)c6ccccc6)cc5)cs4)cc3)cc2)n1)c1ccc(C(=O)c2ccccc2)cc1 [SST0804]
